As a reminder, the pKi is the negative decadic logarithm of the Ki, by convention in mol/L. Lower therefore signals a high Ki. What is called pIC50 is −log10 of the IC50, conventionally taken in molar units. Higher therefore signals a small IC50.

pIC50, pKi: −log10 of the molar value.

For the first assay, the target named is Substance-P receptor (rabbit). Kind of assay: In vitro binding affinity towards Tachykinin receptor 1 to displace [3H][Sar9Met(O2)11]-SP (1 nM) binding to rabbit whole brain membranes.
`COc1ccccc1CNC(=S)N1CCC[C@H]1C(=O)N[C@H](Cc1ccccc1)C(=O)N(C)Cc1ccccc1` showed a pKi of 5.89.

Take `COc1ccccc1CNC(=S)N1CCC[C@H]1C(=O)N[C@@H](Cc1ccccc1)C(=O)N(C)Cc1ccccc1`: the pKi is 6.59.

In the case of `O=C(NC(c1ccccc1)c1ccccc1)[C@@H]1CCCN1C(=S)NCc1ccccc1Br` [(S)-1-(2-Bromo-benzylthiocarbamoyl)-pyrrolidine-2-carboxylic acid benzhydryl-amide], the negative logarithm of the Ki (pKi) was 6.77.

Regarding `O=C(NC(c1ccccc1)c1ccccc1)[C@@H]1CCCN1C(=S)NCc1ccccc1Cl` [(S)-1-(2-Chloro-benzylthiocarbamoyl)-pyrrolidine-2-carboxylic acid benzhydryl-amide], the negative logarithm of the Ki (pKi) is 6.77.

Compound `O=C(NC(c1ccccc1)c1ccccc1)[C@@H]1CCCN1C(=S)NCc1ccccc1F` [(S)-1-(2-Fluoro-benzylthiocarbamoyl)-pyrrolidine-2-carboxylic acid benzhydryl-amide] had a pKi of 5.90.

On to `COc1ccccc1CNC(=S)N1CCC[C@H]1C(=O)NC(c1ccccc1)c1ccccc1` [(S)-1-(2-Methoxy-benzylthiocarbamoyl)-pyrrolidine-2-carboxylic acid benzhydryl-amide], for which the pKi is 6.48.

The target in another assay is Substance-P receptor (rabbit). The assay is described as above. The source holds these as a separate data set.
`COc1ccccc1CNC(=NC#N)N1CCC[C@H]1C(=O)NC(c1ccccc1)c1ccccc1` [1-[N-(2-Methoxy-benzyl)-N'-cyano-carbamimidoyl]-pyrrolidine-2-carboxylic acid benzhydryl-amide] showed a pIC50 of under 4.30.

On to `COc1ccccc1CNC(=S)N1CCC[C@@H]1C(=O)NC(c1ccccc1)c1ccccc1` [(R)-1-(2-Methoxy-benzylthiocarbamoyl)-pyrrolidine-2-carboxylic acid benzhydryl-amide], for which the pIC50 is under 5.30.

In turn, `Nc1ccccc1CNC(=S)N1CCC[C@H]1C(=O)NC(c1ccccc1)c1ccccc1` [(S)-1-(2-Amino-benzylthiocarbamoyl)-pyrrolidine-2-carboxylic acid benzhydryl-amide] showed a pIC50 of under 4.30.

Compound `COc1ccccc1CNC(=S)N1CCC[C@H]1C(=O)NCC(c1ccccc1)c1ccccc1` [(S)-1-(2-Methoxy-benzylthiocarbamoyl)-pyrrolidine-2-carboxylic acid (2,2-diphenyl-ethyl)-amide] showed a pIC50 of under 5.30.

Take `COc1ccccc1CNC(=S)N1CCC[C@H]1C(=O)N(Cc1ccccc1)Cc1ccccc1` [(S)-1-(2-Methoxy-benzylthiocarbamoyl)-pyrrolidine-2-carboxylic acid dibenzylamide]: the negative-log IC50 (pIC50) was under 4.30.

`O=C(NC(c1ccccc1)c1ccccc1)[C@@H]1CCCN1C(=S)NCc1ccccc1` [(S)-1-Benzylthiocarbamoyl-pyrrolidine-2-carboxylic acid benzhydryl-amide] had a pIC50 of under 5.30.

`COc1ccccc1COC(=O)N1CCC[C@H]1C(=O)NC(c1ccccc1)c1ccccc1` [(S)-2-(Benzhydryl-carbamoyl)-pyrrolidine-1-carboxylic acid 2-methoxy-benzyl ester]: the pIC50 is under 4.30.

The values are drawn from BindingDB's records for doi:10.1021/jm970499g (Novartis Institute For Medical Sciences, 1998).
